Laboratory results published in PubChem BioAssay AID1918931 (Molecular Pharmacology Branch, DTP, NCI, 2023).
pIC50: −log10 of the molar value.

System: 138582-337-R-J1-PDC complex spheroid viability
Test: Anticancer human tumor 138582-337-R-J1-PDC patient-derived Merkel cell tumor cell line growth inhibition
Conditions: for pIC50: curve of first compound; for viability, T/C: stronger effect = lower value
Procedure, shortened: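 Multicellular complex spheroids of tumor cells with human endothelial cells (HUVEC) and mesenchymal stem cells; the LSD1 inhibitor iadademstat was combined with standard-of-care or investigational agents. Top concentration at or near clinical Cmax, half-log dilutions; final DMSO ≤0.25%.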

[1] = second compound 0.1 µM, first compound 0.0316 µM
[2] = second compound 0.1 µM, first compound 0.1 µM
[3] = second compound 0.1 µM, first compound 0.316 µM
[4] = second compound 0.1 µM, first compound 1 µM
[5] = second compound 0.316 µM, first compound 0.0316 µM
[6] = second compound 0.316 µM, first compound 0.1 µM
[7] = second compound 0.316 µM, first compound 0.316 µM
[8] = second compound 0.316 µM, first compound 1 µM
[9] = second compound 1 µM, first compound 0.0316 µM
[10] = second compound 1 µM, first compound 0.1 µM
[11] = second compound 1 µM, first compound 0.316 µM
[12] = second compound 1 µM, first compound 1 µM
[13] = second compound 3.16 µM, first compound 0.0316 µM
[14] = second compound 3.16 µM, first compound 0.1 µM
[15] = second compound 3.16 µM, first compound 0.316 µM
[16] = second compound 3.16 µM, first compound 1 µM
[17] = second compound 10 µM, first compound 0.0316 µM
[18] = second compound 10 µM, first compound 0.1 µM
[19] = second compound 10 µM, first compound 0.316 µM
[20] = second compound 10 µM, first compound 1 µM
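Note: spheroids exposed to agents for 7 days.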
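Throughout, for viability, T/C: 100% = DMSO vehicle control viability.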

`CC1COCCN1c1cc(C2(S(C)(=N)=O)CC2)nc(-c2ccnc3[nH]ccc23)n1` (stereo not given) + NC1CC1c1ccc(-c2cccc(O)c2)cc1 showed a pIC50 (second compound 0.1 µM) of 5.34, a pIC50 (second compound 0.316 µM) of 5.52 and a pIC50 (second compound 1 µM) of 5.30. It also gave a pIC50 (second compound 3.16 µM) of 5.41, a pIC50 (second compound 10 µM) of 5.37 and a viability, T/C [1] of 74.1%. It also gave a viability, T/C [2] of 78%, a viability, T/C [3] of 70.3% and a viability, T/C [4] of 68.6%. The viability, T/C (second compound 0.1 µM, first compound 3.16 µM) was 54.2%, the viability, T/C (second compound 0.1 µM, first compound 10 µM) was 37.6% and the viability, T/C [5] was 64.6%. The viability, T/C [6] was 79%, the viability, T/C [7] was 75.8% and the viability, T/C [8] was 68%. The viability, T/C (second compound 0.316 µM, first compound 3.16 µM) was 49.4%, the viability, T/C (second compound 0.316 µM, first compound 10 µM) was 35.9% and the viability, T/C [9] was 72%. The viability, T/C [10] was 66.1%, the viability, T/C [11] was 62.6% and the viability, T/C [12] was 69.4%. For the same compound, the viability, T/C (second compound 1 µM, first compound 3.16 µM) was 54%, the viability, T/C (second compound 1 µM, first compound 10 µM) was 40.8% and the viability, T/C [13] was 81.2%. The viability, T/C [14] was 76.3%, the viability, T/C [15] was 78.8% and the viability, T/C [16] was 66.2%. For the same compound, the viability, T/C (second compound 3.16 µM, first compound 3.16 µM) was 54%, the viability, T/C (second compound 3.16 µM, first compound 10 µM) was 32.6% and the viability, T/C [17] was 89.9%. It also gave a viability, T/C [18] of 87.6%, a viability, T/C [19] of 95.5% and a viability, T/C [20] of 80.8%. It also gave a viability, T/C (second compound 10 µM, first compound 3.16 µM) of 53.3% and a viability, T/C (second compound 10 µM, first compound 10 µM) of 41.6%.
`Nc1ncn(C2CC(O)C(CO)S2)c(=O)n1` (stereo not given) + NC1CC1c1ccc(-c2cccc(O)c2)cc1 showed a pIC50 (second compound 0.1 µM) of under 6.52, a pIC50 (second compound 0.316 µM) of under 6.52 and a pIC50 (second compound 1 µM) of under 6.52. For the same compound, the pIC50 (second compound 3.16 µM) was under 6.52, the pIC50 (second compound 10 µM) was under 6.52 and the viability, T/C (second compound 0.1 µM, first compound 0.000949 µM) was 79.6%. For the same compound, the viability, T/C (second compound 0.1 µM, first compound 0.003 µM) was 83.8%, the viability, T/C (second compound 0.1 µM, first compound 0.00949 µM) was 69.2% and the viability, T/C (second compound 0.1 µM, first compound 0.03 µM) was 73%. The viability, T/C (second compound 0.1 µM, first compound 0.0949 µM) was 77.1%, the viability, T/C (second compound 0.1 µM, first compound 0.3 µM) was 69.3% and the viability, T/C (second compound 0.316 µM, first compound 0.000949 µM) was 68.5%. It also gave a viability, T/C (second compound 0.316 µM, first compound 0.003 µM) of 80.1%, a viability, T/C (second compound 0.316 µM, first compound 0.00949 µM) of 77.9% and a viability, T/C (second compound 0.316 µM, first compound 0.03 µM) of 76.6%. It also gave a viability, T/C (second compound 0.316 µM, first compound 0.0949 µM) of 79.1%, a viability, T/C (second compound 0.316 µM, first compound 0.3 µM) of 78.3% and a viability, T/C (second compound 1 µM, first compound 0.000949 µM) of 71.8%. The viability, T/C (second compound 1 µM, first compound 0.003 µM) was 70.8%, the viability, T/C (second compound 1 µM, first compound 0.00949 µM) was 70.8% and the viability, T/C (second compound 1 µM, first compound 0.03 µM) was 68%. For the same compound, the viability, T/C (second compound 1 µM, first compound 0.0949 µM) was 76.6%, the viability, T/C (second compound 1 µM, first compound 0.3 µM) was 87.5% and the viability, T/C (second compound 3.16 µM, first compound 0.000949 µM) was 84.5%. The viability, T/C (second compound 3.16 µM, first compound 0.003 µM) was 78.9%, the viability, T/C (second compound 3.16 µM, first compound 0.00949 µM) was 84.9% and the viability, T/C (second compound 3.16 µM, first compound 0.03 µM) was 71.8%. For the same compound, the viability, T/C (second compound 3.16 µM, first compound 0.0949 µM) was 77.8%, the viability, T/C (second compound 3.16 µM, first compound 0.3 µM) was 68.9% and the viability, T/C (second compound 10 µM, first compound 0.000949 µM) was 74.3%. It also gave a viability, T/C (second compound 10 µM, first compound 0.003 µM) of 82%, a viability, T/C (second compound 10 µM, first compound 0.00949 µM) of 88.5% and a viability, T/C (second compound 10 µM, first compound 0.03 µM) of 89.7%. For the same compound, the viability, T/C (second compound 10 µM, first compound 0.0949 µM) was 93.4% and the viability, T/C (second compound 10 µM, first compound 0.3 µM) was 89.9%.
`O=C(C=Cn1cnc(-c2cc(C(F)(F)F)cc(C(F)(F)F)c2)n1)NNc1cnccn1` + NC1CC1c1ccc(-c2cccc(O)c2)cc1 gave a pIC50 (second compound 0.1 µM) of 7.94, a pIC50 (second compound 0.316 µM) of 7.98 and a pIC50 (second compound 1 µM) of 8.23. The pIC50 (second compound 3.16 µM) was 8.23, the pIC50 (second compound 10 µM) was 7.80 and the viability, T/C (second compound 0.1 µM, first compound 0.00316 µM) was 60.7%. It also gave a viability, T/C (second compound 0.1 µM, first compound 0.01 µM) of 53%, a viability, T/C [1] of 27.8% and a viability, T/C [2] of 17.4%. For the same compound, the viability, T/C [3] was 16.3%, the viability, T/C [4] was 15.7% and the viability, T/C (second compound 0.316 µM, first compound 0.00316 µM) was 56.7%. For the same compound, the viability, T/C (second compound 0.316 µM, first compound 0.01 µM) was 50.4%, the viability, T/C [5] was 28.1% and the viability, T/C [6] was 16.2%. The viability, T/C [7] was 17.3%, the viability, T/C [8] was 21% and the viability, T/C (second compound 1 µM, first compound 0.00316 µM) was 55.2%. The viability, T/C (second compound 1 µM, first compound 0.01 µM) was 44.8%, the viability, T/C [9] was 33.8% and the viability, T/C [10] was 21.1%. It also gave a viability, T/C [11] of 18.6%, a viability, T/C [12] of 23.8% and a viability, T/C (second compound 3.16 µM, first compound 0.00316 µM) of 55.2%. It also gave a viability, T/C (second compound 3.16 µM, first compound 0.01 µM) of 46%, a viability, T/C [13] of 29.3% and a viability, T/C [14] of 22.1%. The viability, T/C [15] was 22.6%, the viability, T/C [16] was 17.3% and the viability, T/C (second compound 10 µM, first compound 0.00316 µM) was 55.4%. It also gave a viability, T/C (second compound 10 µM, first compound 0.01 µM) of 53.1%, a viability, T/C [17] of 44.6% and a viability, T/C [18] of 35.1%. The viability, T/C [19] was 24.9% and the viability, T/C [20] was 32.2%.
